Measurements taken from ChEMBL document CHEMBL1201862, “PubChem BioAssay data set” (2004).
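The compound was tested at five concentrations on cells cultured in 96-well plates, with a 48-hour exposure period. GI50 = concentration required for 50% inhibition of growth.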 Activity calls are given as the source filed them. No stated cut-off is given here; in the data, active = GI50 up to about 1.1 µM and inactive = higher.

Columns and labels:
Assay in all cases: NCI-60 cell line screen, 48 h
MOLT-4 = system: MOLT-4
HCC 2998 = system: HCC 2998
RPMI-8226 = system: RPMI-8226
COLO 205 = system: COLO 205
OVCAR-5 = system: OVCAR-5
CCRF-CEM = system: CCRF-CEM
SK-MEL-2 = system: SK-MEL-2
SK-OV-3 = system: SK-OV-3
OVCAR-8 = system: OVCAR-8
MDA-N = system: MDA-N
T47D = system: T47D
SK-MEL-28 = system: SK-MEL-28
MDA-MB-231 = system: MDA-MB-231
KM12 = system: KM12
RXF 393 = system: RXF 393
SW-620 = system: SW-620
SNB-19 = system: SNB-19
LOX IMVI = system: LOX IMVI
HOP-62 = system: HOP-62
DU-145 = system: DU-145

Structure (SMILES)	GI50 (MOLT-4)	GI50 (HCC 2998)	GI50 (RPMI-8226)	GI50 (COLO 205)	GI50 (OVCAR-5)	GI50 (CCRF-CEM)	GI50 (SK-MEL-2)	GI50 (SK-OV-3)	GI50 (OVCAR-8)	GI50 (MDA-N)	GI50 (T47D)	GI50 (SK-MEL-28)	GI50 (MDA-MB-231)	GI50 (KM12)	GI50 (RXF 393)	GI50 (SW-620)	GI50 (SNB-19)	GI50 (LOX IMVI)	GI50 (HOP-62)	GI50 (DU-145)
COc1cc(C2S/C(=C/c3ccccc3)C(=O)N2c2ccccn2)cc(OC)c1OC (stereo not given)	9.55 µM (inactive)	15.7 µM (inactive)	7.53 µM (inactive)	29 µM (inactive)	20.8 µM (inactive)	3.57 µM (inactive)	30 µM (inactive)	28.2 µM (inactive)	9.2 µM (inactive)	14.1 µM (inactive)	7.35 µM (inactive)	23 µM (inactive)	24.8 µM (inactive)	12.9 µM (inactive)	10 µM (inactive)	15.3 µM (inactive)	18.1 µM (inactive)	9.59 µM (inactive)	18.6 µM (inactive)	10.3 µM (inactive)
COc1ccc(C2SCC(=O)N2NC(=O)C(C)Oc2ccccc2C)cc1 (stereo not given)	31 µM (inactive)	> 100 µM (inactive)	41.5 µM (inactive)	> 100 µM (inactive)	> 100 µM (inactive)	65.2 µM (inactive)	92.7 µM (inactive)	> 100 µM (inactive)	> 100 µM (inactive)	86.7 µM (inactive)	46.3 µM (inactive)	> 100 µM (inactive)	47.5 µM (inactive)	> 100 µM (inactive)	> 100 µM (inactive)	> 100 µM (inactive)	> 100 µM (inactive)	60.1 µM (inactive)	> 100 µM (inactive)	> 100 µM (inactive)
O=C(O)CCCCn1ccc(=O)[nH]c1=O	> 100 µM (inactive)	> 100 µM (inactive)	> 100 µM (inactive)	> 100 µM (inactive)	> 100 µM (inactive)	> 100 µM (inactive)	> 100 µM (inactive)	> 100 µM (inactive)	> 100 µM (inactive)	> 100 µM (inactive)	> 100 µM (inactive)	> 100 µM (inactive)	> 100 µM (inactive)	> 100 µM (inactive)	> 100 µM (inactive)	> 100 µM (inactive)	> 100 µM (inactive)	> 100 µM (inactive)	> 100 µM (inactive)	> 100 µM (inactive)
C=C1C[C@@H](O)[C@@H](Br)C(C)(C)[C@]12CCC(C)(Br)C(Cl)C2 (stereo not given in full)	> 50 µM (inactive)	> 50 µM (inactive)	43.9 µM (inactive)	0.791 µM (active)	1.7 µM (inactive)	> 50 µM (inactive)	> 50 µM (inactive)	> 50 µM (inactive)	> 50 µM (inactive)	> 50 µM (inactive)	> 50 µM (inactive)	> 50 µM (inactive)	> 50 µM (inactive)	1.07 µM (active)	> 50 µM (inactive)	> 50 µM (inactive)	> 50 µM (inactive)	> 50 µM (inactive)	> 50 µM (inactive)	> 50 µM (inactive)
N#Cc1nc(-c2cccs2)oc1N	> 100 µM (inactive)	> 100 µM (inactive)	> 100 µM (inactive)	> 100 µM (inactive)	> 100 µM (inactive)	70.6 µM (inactive)	> 100 µM (inactive)	> 100 µM (inactive)	> 100 µM (inactive)	> 100 µM (inactive)	> 100 µM (inactive)	> 100 µM (inactive)	51.3 µM (inactive)	> 100 µM (inactive)	> 100 µM (inactive)	> 100 µM (inactive)	> 100 µM (inactive)	63.5 µM (inactive)	> 100 µM (inactive)	> 100 µM (inactive)
Clc1nc(NC23CC4CC(CC(C4)C2)C3)nc(NC23CC4CC(CC(C4)C2)C3)n1	17.5 µM (inactive)	53.5 µM (inactive)	19.1 µM (inactive)	> 67.3 µM (inactive)	> 100 µM (inactive)	17 µM (inactive)	19.3 µM (inactive)	> 76.6 µM (inactive)	70.1 µM (inactive)	46.8 µM (inactive)	10.5 µM (inactive)	> 100 µM (inactive)	> 34.3 µM (inactive)	41.2 µM (inactive)	17.9 µM (inactive)	62.4 µM (inactive)	> 100 µM (inactive)	> 100 µM (inactive)	44.2 µM (inactive)	56.6 µM (inactive)
C[C@]12CC[C@H]3[C@@H](CC[C@]4(O)C[C@@H](O)CC[C@]34CO)[C@@]1(O)CC[C@@H]2C1=CC(=O)OC1 [STROPHANTHIDOL]	0.225 µM (active)	22.9 µM (inactive)	1.95 µM (inactive)	3.73 µM (inactive)	3.07 µM (inactive)	0.522 µM (active)	2.5 µM (inactive)	2.64 µM (inactive)	1.77 µM (inactive)	2.99 µM (inactive)	3.3 µM (inactive)	4.78 µM (inactive)	8.45 µM (inactive)	3.66 µM (inactive)	0.223 µM (active)	2.37 µM (inactive)	5.94 µM (inactive)	2.01 µM (inactive)	1.36 µM (inactive)	1.36 µM (inactive)
Cc1cc(S(=O)(=O)Nc2nc3ccccc3[nH]2)c(S)cc1Cl	30.4 µM (inactive)	98.9 µM (inactive)	34.6 µM (inactive)	82.2 µM (inactive)	> 100 µM (inactive)	26.6 µM (inactive)	30.9 µM (inactive)	> 100 µM (inactive)	> 100 µM (inactive)	> 100 µM (inactive)	41.4 µM (inactive)	27.4 µM (inactive)	58.6 µM (inactive)	37.5 µM (inactive)	> 100 µM (inactive)	37.6 µM (inactive)	72.3 µM (inactive)	19.3 µM (inactive)	39.4 µM (inactive)	> 100 µM (inactive)
CC1(C)CC(=O)C(CCC(=O)/C=C/c2ccccc2)C(=O)C1	34 µM (inactive)	> 100 µM (inactive)	> 100 µM (inactive)	> 100 µM (inactive)	> 100 µM (inactive)	> 34.9 µM (inactive)	> 100 µM (inactive)	> 100 µM (inactive)	> 100 µM (inactive)	> 100 µM (inactive)	> 100 µM (inactive)	> 100 µM (inactive)	> 100 µM (inactive)	> 100 µM (inactive)	> 95.3 µM (inactive)	> 100 µM (inactive)	> 76.4 µM (inactive)	> 100 µM (inactive)	> 100 µM (inactive)	> 100 µM (inactive)
CCOC(OCC)C(CC)[Se]c1ccccc1[N+](=O)[O-] (stereo not given)	2.9 µM (inactive)	1.56 µM (inactive)	3.44 µM (inactive)	2.48 µM (inactive)	6.35 µM (inactive)	2 µM (inactive)	6.34 µM (inactive)	2.31 µM (inactive)	4.48 µM (inactive)	0.352 µM (active)	9.06 µM (inactive)	10.5 µM (inactive)	9.2 µM (inactive)	3.06 µM (inactive)	1.8 µM (inactive)	2.5 µM (inactive)	3.75 µM (inactive)	5.33 µM (inactive)	3.08 µM (inactive)	3.95 µM (inactive)
CSc1cc(-c2ccccn2)nc(-c2ccccn2)c1	0.0421 µM (active)	0.0518 µM (active)	0.383 µM (active)	0.125 µM (active)	0.179 µM (active)	0.0527 µM (active)	0.552 µM (active)	0.255 µM (active)	0.0845 µM (active)	0.452 µM (active)	0.346 µM (active)	0.0736 µM (active)	0.494 µM (active)	0.124 µM (active)	0.255 µM (active)	0.126 µM (active)	0.564 µM (active)	0.043 µM (active)	0.0329 µM (active)	0.097 µM (active)
C/C(=N\Nc1nc2ccccc2s1)c1cccc[n+]1[O-]	1.81 µM (inactive)	0.0252 µM (active)	41.1 µM (inactive)	32.2 µM (inactive)	2.33 µM (inactive)	25.2 µM (inactive)	> 100 µM (inactive)	37.4 µM (inactive)	30.2 µM (inactive)	76.2 µM (inactive)	30.8 µM (inactive)	> 100 µM (inactive)	49.9 µM (inactive)	30.1 µM (inactive)	66.2 µM (inactive)	32.7 µM (inactive)	> 100 µM (inactive)	48.6 µM (inactive)	48.3 µM (inactive)	> 100 µM (inactive)
O=C(O)CCSc1ncnc2[nH]cnc12	> 100 µM (inactive)	> 100 µM (inactive)	> 100 µM (inactive)	> 100 µM (inactive)	> 100 µM (inactive)	> 100 µM (inactive)	> 100 µM (inactive)	> 100 µM (inactive)	> 100 µM (inactive)	> 100 µM (inactive)	> 100 µM (inactive)	> 100 µM (inactive)	> 100 µM (inactive)	> 100 µM (inactive)	> 100 µM (inactive)	> 100 µM (inactive)	> 100 µM (inactive)	> 100 µM (inactive)	> 100 µM (inactive)	> 100 µM (inactive)
CC(C)[C@H]1NC(=O)[C@H]2N=C(O[C@@H]2C)[C@@H]2CCCN2C(=O)[C@H](Cc2ccccc2)NC(=O)[C@@H]2COC(=N2)[C@@H](Cc2ccccc2)NC(=O)[C@@H]2COC1=N2	> 100 µM (inactive)	> 100 µM (inactive)	> 100 µM (inactive)	> 100 µM (inactive)	> 100 µM (inactive)	> 100 µM (inactive)	> 100 µM (inactive)	> 100 µM (inactive)	> 100 µM (inactive)	> 100 µM (inactive)	> 100 µM (inactive)	> 100 µM (inactive)	> 100 µM (inactive)	> 100 µM (inactive)	> 100 µM (inactive)	> 100 µM (inactive)	> 100 µM (inactive)	> 100 µM (inactive)	> 100 µM (inactive)	> 100 µM (inactive)
